According to patent US20220395582A1, “COMPOSITIONS AND METHODS OF INDUCING DIFFERENTIATION OF A HAIR CELL” (Akouos, Inc., priority 2018, published 2022):

B1: mScarlet: nucleic acid vector with ITR, CMV promoter, mScarlet and bGHpA sequences (nucleic acid)
DNA: CCTGCAGGCAGCTGCGCGCTCGCTCGCTCACTGAGGCCGCCCGGGCGTCGGGCGACCTTTGGTCGCCCGGCCTCAGTGAGCGAGCGAGCGCGCAGAGAGGGAGTGGCCAACTCCATCACTAGGGGTTCCTGTGATGCGGTTTTGGCAGTACATCAATGGGCGTGGATAGCGGTTTGACTCACGGGGATTTCCAAGTCTCCACCCCATTGACGTCAATGGGAGTTTGTTTTGGCACCAAAATCAACGGGACTTTCCAAAATGTCGTAACAACTCCGCCCCATTGACGCAAATGGGCGGTAGGCGTGTACGGTGGGAGGTCTATATAAGCAGAGCTCGTTTAGTGAACCGTCAGATCGCCTGGAGACGCGTGAGCAAGGGCGAGGCAGTGATCAAGGAGTTCATGCGGTTCAAGGTGCACATGGAGGGCTCCATGAACGGCCACGAGTTCGAGATCGAGGGCGAGGGCGAGGGCCGCCCCTACGAGGGCACCCAGACCGCCAAGCTGAAGGTGACCAAGGGTGGCCCCCTGCCCTTCTCCTGGGACATCCTGTCCCCTCAGTTCATGTACGGCTCCAGGGCCTTCATCAAGCACCCCGCCGACATCCCCGACTACTATAAGCAGTCCTTCCCCGAGGGCTTCAAGTGGGAGCGCGTGATGAACTTCGAGGACGGCGGCGCCGTGACCGTGACCCAGGACACCTCCCTGGAGGACGGCACCCTGATCTACAAGGTGAAGCTCCGCGGCACCAACTTCCCTCCTGACGGCCCCGTAATGCAGAAGAAGACAATGGGCTGGGAAGCGTCCACCGAGCGGTTGTACCCCGAGGACGGCGTGCTGAAGGGCGACATTAAGATGGCCCTGCGCCTGAAGGACGGCGGCCGCTACCTGGCGGACTTCAAGACCACCTACAAGGCCAAGAAGCCCGTGCAGATGCCCGGCGCCTACAACGTCGACCGCAAGTTGGACATCACCTCCCACAACGAGGACTACACCGTGGTGGAACAGTACGAACGCTCCGAGGGCCGCCACTCCACCGGCGGCATGGACGAGCTGTACAAGTAAGCTGATCAGCCTCGACTGTGCCTTCTAGTTGCCAGCCATCTGTTGTTTGCCCCTCCCCCGTGCCTTCCTTGACCCTGGAAGGTGCCACTCCCACTGTCCTTTCCTAATAAAATGAGGAAATTGCATCGCATTGTCTGAGTAGGTGTCATTCTATTCTGGGGGGTGGGGTGGGGCAGGACAGCAAGGGGGAGGATTGGGAAGACAATAGCAGGCATGCTGGGGATGCGGTGGGCTCTATGGAGGAACCCCTAGTGATGGAGTTGGCCACTCCCTCTCTGCGCGCTCGCTCGCTCACTGAGGCCGGGCGACCAAAGGTCGCCCGACGCCCGGGCTTTGCCCGGGCGGCCTCAGTGAGCGAGCGAGCGCGCAGCTGCCTGCAGG
modifications: pITR-CMV-mScarlet-bGHpA

Key:
ATOH1, POU4F3, and GFI1 = test: Relative quantification of ATOH1, POU4F3 and GFI1 RNA in HEK293FT cells transfected with individual plasmids; assay type: cell-based; conditions: FIG. 6A
Description: FIG. 6A is a bar graph showing the relative quantification of ATOH1, POU4F3, and GFI1 (APG) RN in HEK293FT cells transfected with the individual plasmids of FIGS. 4A-C.
The data in FIGS. 6A and 6B show overexpression of ATOH1, POU4F3 and GFI-1 in HEK293FT cells that were transfected with the vectors of FIGS. 4A-4D.

HEK293FT cells [1] = test: mScarlet positive HEK293FT cells with AAVanc80 vector at various MOIs, with or without TMP; assay type: cell-based; conditions: 10 μM TMP added later, FIGS. 9A and 9B
Procedure: FIG. 9B is an image showing mScarlet positive HEK293FT cells transfected with AAVanc80 vector at various MOIs. 10 μM TMP was added at a later time point.
(§1) HEK293FT cells were transfected with mScarlet and mScarlet-DD vectors (FIGS. 7A-7B). The data in FIGS. 8A and 8B show the functionality and reversibility of the destabilizing domain (DD) using fluorescence microscopy and flow cytometry, respectively.

[2] = tested on: hair cells and supporting cells in cochlear explants; test: mScarlet positive hair cells and supporting cells in cochlear explants infected with AAVanc80, with and without TMP; assay type: cell-based, mouse; conditions: with and without 10 uM TMP, FIG. 10
Procedure: FIG. 9A is an image showing mScarlet positive cells in a P1-P3 mouse cochlea explant transfected with AAVanc80 vector at various MOIs. 10 μM TMP was added at a later time point.
FIG. 10 is an image showing mScarlet positive hair cells and supporting cells in a cochlear explants infected with AAVanc80 with and without 10 uM TMP that was added at a later time point.
as §1

HEK293FT cells [3] = test: Destabilizing domain (DD) functionality and reversibility, TMP dose response by fluorescence microscopy; assay type: cell-based; conditions: TMP 0.1, 1, 10, 20 and 100 μM, FIG. 8A
Procedure: FIG. 8A is a dose response curve showing the functionality and reversibility of the destabilizing domain (DD) using fluorescence microscopy. Serial dilutions of TMP (0.1 μM, 1 μM, 10 μM, 20 μM and 100 μM) were tested in the mScarlet and mScarlet-DD transfected HEK293FT cells.
as §1

Row | Molecule | ATOH1 and GFI-1 mRNA levels on overexpression of POU4F3 (ATOH1, POU4F3, and GFI1) | mScarlet expression (HEK293FT cells [1]) | mScarlet expression in cochlear explants [2] | percentage of mScarlet positive cells (HEK293FT cells [3])
1 | POU4F3: nucleic acid vector with CMV promoter, human POU4F3 gene, 3×Flag, T2A, mScarlet and destabilizing domain | increase in ATOH1 and GFI-1 mRNA levels |  |  | 
2 | mScarlet-DD: nucleic acid vector with ITR, CMV promoter, mScarlet, destabilizing domain (DD) and bGHpA sequences |  | primarily seen in mScarlet-DD transfected cells in the presence of TMP | only seen in the presence of TMP | increased proportionately with increasing concentration of TMP
3 | B1 |  | seen in all HEK293FT cells | seen in hair cells and supporting cells | remained constant regardless of TMP concentration
